Measurements as given in article PMC7150870 (Toxins, 2020).
Where two headings read alike, the source gives them in different places. Marks after values point to notes of the source that are not given here.

Columns and labels:
HEK 293T cells [1] = format: cell-based, human
HEK 293T cells [2] = tested on: HEK 293T cells
[3] = 5.2–15.5 mM; cited from earlier work
TNF-α = settings: cited from earlier work
HEK293T cells = format: cell-based, human
hepatocyte cells = settings: cited from earlier work
human fibroblasts = settings: 50 µM for 24 h; cited from earlier work
Caco-2 = format: cell-based, human
various mammalian cells = settings: cited from earlier work
RAW 264.7 = format: cell-based, mouse
HEK293T = format: cell-based, human
P-gp [4] = target: T1, P-gp (Homo sapiens, UniProt P08183); settings: cited from earlier work
T1 sequence (P08183 whole entry, looked up): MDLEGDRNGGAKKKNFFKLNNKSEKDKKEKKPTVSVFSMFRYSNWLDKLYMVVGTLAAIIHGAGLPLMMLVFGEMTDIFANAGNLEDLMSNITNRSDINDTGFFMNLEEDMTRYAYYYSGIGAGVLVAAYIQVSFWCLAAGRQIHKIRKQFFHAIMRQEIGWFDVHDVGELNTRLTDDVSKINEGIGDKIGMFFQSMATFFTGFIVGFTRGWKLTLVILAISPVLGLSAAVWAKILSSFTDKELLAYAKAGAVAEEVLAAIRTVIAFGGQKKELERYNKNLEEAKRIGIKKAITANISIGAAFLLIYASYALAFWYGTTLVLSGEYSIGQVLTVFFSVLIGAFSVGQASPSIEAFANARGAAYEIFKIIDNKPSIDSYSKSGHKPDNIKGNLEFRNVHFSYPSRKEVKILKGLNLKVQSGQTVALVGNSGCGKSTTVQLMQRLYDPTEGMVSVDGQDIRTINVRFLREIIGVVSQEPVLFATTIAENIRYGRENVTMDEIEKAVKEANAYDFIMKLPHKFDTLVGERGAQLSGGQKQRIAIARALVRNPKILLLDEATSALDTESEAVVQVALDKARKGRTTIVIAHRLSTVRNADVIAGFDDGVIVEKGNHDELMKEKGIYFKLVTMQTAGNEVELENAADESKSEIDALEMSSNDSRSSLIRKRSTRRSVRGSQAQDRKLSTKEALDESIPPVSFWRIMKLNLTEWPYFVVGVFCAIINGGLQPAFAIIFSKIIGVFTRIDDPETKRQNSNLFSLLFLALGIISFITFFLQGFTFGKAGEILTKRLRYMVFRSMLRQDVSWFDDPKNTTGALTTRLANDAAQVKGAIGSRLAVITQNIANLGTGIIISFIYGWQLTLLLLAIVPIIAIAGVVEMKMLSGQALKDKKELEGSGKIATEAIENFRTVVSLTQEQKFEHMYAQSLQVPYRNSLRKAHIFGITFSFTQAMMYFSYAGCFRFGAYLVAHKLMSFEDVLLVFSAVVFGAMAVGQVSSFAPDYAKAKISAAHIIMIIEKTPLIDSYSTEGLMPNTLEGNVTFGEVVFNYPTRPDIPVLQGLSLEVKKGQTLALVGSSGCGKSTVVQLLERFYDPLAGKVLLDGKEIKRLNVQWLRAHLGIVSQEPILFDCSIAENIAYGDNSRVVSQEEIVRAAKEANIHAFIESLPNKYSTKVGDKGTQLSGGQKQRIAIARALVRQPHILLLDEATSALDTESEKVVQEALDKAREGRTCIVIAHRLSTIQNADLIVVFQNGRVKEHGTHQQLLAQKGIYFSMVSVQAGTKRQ

HepG2 = format: cell-based, human
[5] = tested on: HepG2, Caco-2, RAW 264.7, and HEK 293T cells; settings: read-out: IC50 range in studied cells
epithelial cell layers = settings: cited from earlier work
P-gp [6] = target: T1, P-gp
[7] = human (Caco-2), mouse (RAW 264.7)

COc1cc(C2Oc3cc([C@H]4Oc5cc(O)cc(O)c5C(=O)[C@@H]4O)ccc3OC2CO)ccc1O (stereo partly shown) [Silibinin, silibinin, reference compound]
decrease of cell viability compared to cells cultured with a single mycotoxin (HEK 293T cells [1]): about 30% | percentage of DNA in comet tail with respect to the negative control (HEK 293T cells [2]): did not induce genotoxic effects | amount of DNA in the comet tail compared to positive control [3]: reduced the amount of DNA in the comet tail | metabolites found by non-target U-HPLC-MS analysis (Caco-2 cells): sulfate derivative | transepithelial transport, Apical Medium (Caco-2 cells; [7]): 44.34 ± 1.96^cd % | transepithelial transport, Basolateral Medium (Caco-2 cells; [7]): 23.24 ± 1.79^de % | transepithelial transport, Caco-2 Cells (Caco-2 cells; [7]): 0.00 ± 0.00^a % | transepithelial transport, Raw 264.7 Cells (Caco-2 cells; [7]): 0.00 ± 0.00^a % | transepithelial transport, Total (Caco-2 cells; [7]): 67.58 ± 2.95^cd % | OTA-induced TNF-α level reduced to (TNF-α): 70% | doses completely blocking OTA-induced TNF-α (TNF-α): 1 to 26 µM | reduction of cell viability by sole silibinin treatment (HEK293T cells): 45% | effect against OTA cytotoxicity (hepatocyte cells): protective effect | cytotoxic effect (human fibroblasts): no significant cytotoxic effect

CC(=O)OC[C@]12C[C@H](OC(=O)CC(C)C)C(C)=C[C@H]1O[C@@H]1[C@H](O)[C@@H](OC(C)=O)[C@@]2(C)[C@]12CO2 [T-2, T-2 toxin]
IC50 (Caco-2): 13.4 ± 1.07 nM | combination index, silibinin 3.4 µM (HEK 293T cells [1]): 0.99 ± 0.02 Add | combination index, silibinin 6.8 µM (HEK 293T cells [1]): 1.46 ± 0.14 Ant | combination index, silibinin 13.6 µM (HEK 293T cells [1]): 1.82 ± 0.06 Ant | combination index, silibinin 27.3 µM (HEK 293T cells [1]): 1.41 ± 0.11 Ant | combination index, silibinin 54.5 µM (HEK 293T cells [1]): 0.91 ± 0.04 Add | combination index, silibinin 109.00 µM (HEK 293T cells [1]): 1.00 ± 0.08 Add | silibinin pretreatment concentration with the strongest antagonism (HEK 293T cells [1]): 13.6 µM | type of interaction, silibinin 3.4 µM (HEK 293T cells [1]): 0.99 ± 0.02 Add (key: Syn: Combination index (CI) < 0.9; Add: 0.9 ≤ CI ≤ 1; Ant: CI > 1) | type of interaction, silibinin 6.8 µM (HEK 293T cells [1]): 1.46 ± 0.14 Ant (key: Syn: Combination index (CI) < 0.9; Add: 0.9 ≤ CI ≤ 1; Ant: CI > 1) | type of interaction, silibinin 13.6 µM (HEK 293T cells [1]): 1.82 ± 0.06 Ant (key: Syn: Combination index (CI) < 0.9; Add: 0.9 ≤ CI ≤ 1; Ant: CI > 1) | type of interaction, silibinin 27.3 µM (HEK 293T cells [1]): 1.41 ± 0.11 Ant (key: Syn: Combination index (CI) < 0.9; Add: 0.9 ≤ CI ≤ 1; Ant: CI > 1) | type of interaction, silibinin 54.5 µM (HEK 293T cells [1]): 0.91 ± 0.04 Add (key: Syn: Combination index (CI) < 0.9; Add: 0.9 ≤ CI ≤ 1; Ant: CI > 1) | type of interaction, silibinin 109.00 µM (HEK 293T cells [1]): 1.00 ± 0.08 Add (key: Syn: Combination index (CI) < 0.9; Add: 0.9 ≤ CI ≤ 1; Ant: CI > 1) | metabolites found by non-target U-HPLC-MS analysis (Caco-2 cells): 3´-hydroxy, 3-hydroxy-15-deacetyl | transepithelial transport, Apical Medium (Caco-2 cells): 11.63 ± 0.62^a % | transepithelial transport, Basolateral Medium (Caco-2 cells): 28.13 ± 0.48^e % | transepithelial transport, Caco-2 Cells (Caco-2 cells): 0.01 ± 0.00^a % | transepithelial transport, Raw 264.7 Cells (Caco-2 cells): 0.01 ± 0.00^a % | transepithelial transport, Total (Caco-2 cells): 39.77 ± 0.98^b % | IC50 (HEK293T cells; read-out: IC50 halving the HEK293T cells viability): 7 nM | IC50 (various mammalian cells): 3 to 500 nM | IC50 (RAW 264.7): 3.57 ± 0.27 nM | IC50 (HEK293T): 3.87 ± 0.27 nM | P-gp substrate (P-gp [4]): not a substrate of P-gp | IC50 (HepG2): 11.4 ± 0.37 nM | IC50 [5]: 3.57 to 13.4 nM | transport through the epithelial cell layers (epithelial cell layers): ≤ 24% | P-gp activation (ATP consumption) (P-gp [6]): activated P-gp in dose-dependent manner
